Consider three compounds from patent US20110281836A1, “Silent desensitizers of neuronal NACHR and methods of use thereof” (priority 2008, published 2011).

Data set [1] concerns the target T1, α4β2 nAChRs (Rattus norvegicus, UniProt P09483+P12390).
T1 construct: expressed in transfected cells; host or cells: HEK293 (KXα4β2)
The experiment in a line: radioligand ([3H]epibatidine) competition binding, α4β2 nAChR. On the procedure:
A. Cell Lines and Cell Culture. The cell lines KXα3β4R2, expressing rat α3β4 nAChRs, and KXα4β2, expressing rat α4β2 nAChRs, were established previously by stably transfecting human embryonic kidney 293 cells with combinations of rat nAChR subunit genes. These cell lines are maintained in minimum essential medium supplemented with 10% fetal bovine serum, 100 units/mL penicillin G, […] streptomycin, and 0.7 mg/mL G418 (Geneticin) at 37° C. with 5% CO2 in a humidified incubator. The cell line SH-EP1-pcDNA-hα4β2, expressing human α4β2 nAChRs, was described previously and are available. The SH-EP1-pcDNA-hα4β2 cells are grown in Dulbecco's modified Eagle's medium supplemented with 5% fetal bovine serum, 10% horse serum, 100 units/mL penicillin G, 100 μg/mL streptomycin, 320 μg/mL hygromycin B (Calbiochem, La Jolla, Calif.), 400 units/mL Zeocin at 37° C. with 5% CO2 in a humidified incubator.
B. nAChR Binding Affinity and Sub-type Selectivity Assay. The Ki values of compounds for binding to α3β4, α4β2 and other nAChR sub-types will be measured by competition experiments with [3H]epibatidine or other labeled ligands. Not intending to be bound by any one approach, one radioligand binding assay used for measuring the binding of [3H]epibatidine to nAChRs is described below.
In brief, cultured cells at above about 80% confluence will be removed from their flasks (80 cm^2) with a disposable cell scraper and will be placed in 10 mL of 50 mM Tris-HCl buffer, pH 7.4, 4° C. The cell suspension will be centrifuged at 10,000 g for 5 min and the pellet will be collected. For cells undergoing prolonged treatment with nicotinic agonists during culturing, the pellet will be washed two more times by centrifugation in fresh buffer to remove residual drug. The cell pellet will then homogenized in 10 mL of buffer with a Polytron homogenizer (12-mm aggregate, 26,000 rpm, 20 s; model PT2100; Kinematica, Basel, Switzerland) and will be centrifuged at 36,000 g for 10 min at 4° C. The membrane pellet will be resuspended in fresh buffer, and aliquots of the membrane preparation equivalent to 30 to 200 μg of protein will be used for binding assays. The concentration of [3H]epibatidine used will be 100 pM for competition binding assays and 2.4 nM, which is a saturating concentration for the α4β2 receptor subtype, for measuring receptor density. Nonspecific binding will be assessed in parallel incubations in the presence of 300 μM nicotine. Bound and free ligands will be separated by vacuum filtration through Whatman GF/C filters treated with 0.5% polyethylenimine. The filter-retained radioactivity will be measured by liquid scintillation counting. […] Data from saturation and competition binding assays will be analyzed using Prism 4 (GraphPad Software, San Diego, Calif.).

Data set [2] addresses T2, α3β4 nAChRs (Rattus norvegicus, UniProt P04757+P12392).
T2 construct: expressed in transfected cells; host or cells: HEK293 (KXα3β4R2)
The experiment in a line: radioligand ([3H]epibatidine) competition binding, α3β4 nAChR. On the procedure:
(§1) A. Cell Lines and Cell Culture. The cell lines KXα3β4R2, expressing rat α3β4 nAChRs, and KXα4β2, expressing rat α4β2 nAChRs, were established previously by stably transfecting human embryonic kidney 293 cells with combinations of rat nAChR subunit genes. These cell lines are maintained in minimum essential medium supplemented with 10% fetal bovine serum, 100 units/mL penicillin G, […] streptomycin, and 0.7 mg/mL G418 (Geneticin) at 37° C. with 5% CO2 in a humidified incubator. The cell line SH-EP1-pcDNA-hα4β2, expressing human α4β2 nAChRs, was described previously and are available. […]
B. nAChR Binding Affinity and Sub-type Selectivity Assay. The Ki values of compounds for binding to α3β4, α4β2 and other nAChR sub-types will be measured by competition experiments with [3H]epibatidine or other labeled ligands. […]
In brief, cultured cells at above about 80% confluence will be removed from their flasks (80 cm^2) with a disposable cell scraper and will be placed in 10 mL of 50 mM Tris-HCl buffer, pH 7.4, 4° C. […] Nonspecific binding will be assessed in parallel incubations in the presence of 300 μM nicotine. […] The filter-retained radioactivity will be measured by liquid scintillation counting. […] Data from saturation and competition binding assays will be analyzed using Prism 4 (GraphPad Software, San Diego, Calif.).

In data set [3] the target is T3, α4β2 nAChRs (Homo sapiens, UniProt P17787+P43681).
T3 construct: expressed in transfected cells; host or cells: SH-EP1 (SH-EP1-pcDNA-hα4β2)
The experiment in a line: desensitizer test: 86Rb+ efflux after 10 min preincubation, α4β2 nAChR. Format: cell-based. On the procedure:
as §1
C. nAChR Functional Assay. The agonist, antagonist and/or desitizer activity of compounds of the invention can be evaluated by measuring its blockade of nicotine-stimulated 86Rb+ efflux. […]
In brief, cells will be plated into 24-well plates coated with poly-D-lysine. […] Radioactivity of assay samples and lysates will be measured by liquid scintillation counting. Total loading (cpm) will be calculated as the sum of the assay sample and the lysate of each well. The amount of 86Rb+ efflux will be expressed as a percentage of 86Rb+ loaded. […] IC50 values will be determined by nonlinear least-squares regression analyses (GraphPad Software).
D. Measurement of Desensitization. Not intending to be bound by any one method, desensitization may be measured, for example, by the method described below. […]

For data set [4] the following is noted: in vivo; cited from earlier work.
Data set [5] is described as follows: stability of the isolated HCl salt on exposure to air. Format: physicochemical. To be noted: white solid, larger scale. From the text: A gram-scale synthesis of sazetidine A is outlined in FIG. 1a. The Boc-protected azidityl methyl alcohol 2 and 3-bromo-5-hydroxy pyridine (3) are both commercially available. Treatment with PPh3 and DEAD according to the Mitsunobu protocol formed ether derivative 4 in 70% yield. Palladium-mediated coupling of the bromo-substituted pyridine 4 with 5-hexyn-1-ol under modified Sonogashira conditions furnished Boc-protected sazetidine A in 73% yield. Deprotection of the Boc-group with HCl was expected to give sazetidine A in salt form as published in the literature.

Data set [6] addresses T2, α3β4 nAChRs. Particulars: radioligand binding assays; cited from earlier work.
Data set [7] deals with α7 nAChRs. To be noted: radioligand binding assays; cited from earlier work.
The target in data set [8] is T3, α4β2 nAChRs. Particulars: preincubated for 10 min with the cells; complete desensitization; cited from earlier work.
In data set [9] the target is T2, α3β4 nAChRs. Particulars: concentrations up to 10 μM, even after preincubation; cited from earlier work.
For data set [10], the target named is T3, α4β2 nAChRs. Particulars: cited from earlier work.

Molecules are shown by their SMILES.

By Ki is commonly meant a dissociation constant, usually derived from enzyme kinetics or from competition with a known ligand. One may read the IC50 as the concentration at which inhibition is half-maximal. On to `OCCCCc1cn(-c2cncc(OCC3CCN3)c2)nn1` (centres unmarked) [triazetidine O], for which the Ki is 3.51 nM in data set [1] and 62000 nM in data set [2]. The “decrease in Ki relative to sazetidine A” value in [1] (triazole in place of the alkynyl group) is “approximately 10 fold”. Moreover, the “selectivity for the α4β2 receptor” value in data set [1] (α4β2 over α3β4, from Ki values) was 17,692 fold. For the same compound, in data set [3], the half-maximal inhibitory concentration (IC50) was found to be 100 nM.

`Clc1ccc(C2CC3CCC2N3)cn1` (centres unmarked) [Epibatidine]: in data set [4], the analgesic potency was ~200 times that of morphine.

The EC50 is the concentration needed to bring the measured effect to its halfway point. Take `OCCCCC#Cc1cncc(OCC2CCN2)c1` (centres unmarked) [sazetidine A]: the Ki in data set [1] was 0.41 nM. Moreover, in [5], the “stability on exposure to air” value is recorded as “decomposition of the material to a yellow-brown wet solid”. The “selectivity, affinity at α4β2 compared to α3β4 nAChRs” value in data set [6] was “greater than 10,000 fold”. The “selectivity, affinity at α4β2 compared to α7 nAChRs” value in [7] was > 3,500 fold. Further, the EC50 in data set [8] was 26 nM. Moreover, the “effect on the function of α3β4 nAChRs” value in data set [9] is “no effect”. For the same compound, the “agonist activity at α4β2 nAChRs” value in data set [10] (added alone) is “low agonist activity”. For the same compound, in [10] (added simultaneously with an agonist, such as nicotine), the “antagonist activity at α4β2 receptors” value is listed as “no typical antagonist activity”.
